This is an account of results in US8044052B2, “Biaryl ether urea compounds” (Pfizer Inc., priority 2006, dated 2011).

This experiment has as its target T1, Human FAAH (Homo sapiens, UniProt O00519).
T1 construct: made in house
T1 sequence (O00519 1-579): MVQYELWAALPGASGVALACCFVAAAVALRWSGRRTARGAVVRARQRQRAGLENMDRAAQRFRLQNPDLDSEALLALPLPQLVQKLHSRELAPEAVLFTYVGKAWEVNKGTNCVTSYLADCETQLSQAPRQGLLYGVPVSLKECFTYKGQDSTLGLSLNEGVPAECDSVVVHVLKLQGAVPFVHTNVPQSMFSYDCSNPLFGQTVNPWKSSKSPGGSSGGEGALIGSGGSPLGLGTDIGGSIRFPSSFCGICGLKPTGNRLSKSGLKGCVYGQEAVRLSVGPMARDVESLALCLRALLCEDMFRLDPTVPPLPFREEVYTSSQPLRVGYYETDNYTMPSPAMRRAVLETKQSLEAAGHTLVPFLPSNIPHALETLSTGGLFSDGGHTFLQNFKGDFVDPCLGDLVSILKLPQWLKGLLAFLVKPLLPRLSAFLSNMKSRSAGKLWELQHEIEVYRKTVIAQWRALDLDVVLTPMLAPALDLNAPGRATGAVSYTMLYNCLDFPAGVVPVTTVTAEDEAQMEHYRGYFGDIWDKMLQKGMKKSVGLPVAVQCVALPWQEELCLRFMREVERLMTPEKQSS
The experiment is described as follows: FAAH assay (glutamate dehydrogenase-coupled, oleamide substrate, absorbance at 340 nm). The conditions noted are these: irreversible inhibition, 1-4 nM FAAH, pH 7.4, 30° C., 90 min; for kinact/KI: read-out: hFAAH kinact/Ki. It is filed as biochemical. Here is the method: The FAAH assay was carried out in 384-well clear polystyrene plates in a total volume of 50 μl per well. All percents are by volume. To each well, was placed the reaction mixture (40 μl) containing 1-4 nM FAAH, 50 mM NaPi, pH 7.4, 3 mM α-ketoglutarate, 0.15 mM NADH, 7.5 U/ml glutamate dehydrogenase, 2 mM ADP, 1 mM EDTA, and 0.1% Triton X-100 (The concentration shown for each component is the final concentration in the assay). […] This was immediately followed by the addition of 5 μl oleamide (500 μM) dissolved in 75% EtOH/25% DMSO and the reaction mixture was mixed for 1.5 min. The final concentrations of DMSO and EtOH in the assay were each 7.5%.
Initial velocity data (V) were obtained from the slopes of the initial progressive curves. They were plotted as a function of substrate concentration and fit to the Michaelis-Menten equation (1) using Prism (GraphPad Software, Inc., San Diego, Calif.) software to obtain Km and Vmax values.
To obtain potencies of irreversible inhibitors, progressive curves consistent with first order inhibition kinetics (two-step irreversible inhibition mechanism) were fit to equation (2) by nonlinear least squares regressions to determine kobs values at each inhibitor concentration, where [P]t is the absorbance at time t, V0 is a constant related to the steady state rate of the uninhibited reaction, and kobs is the first order rate constant for enzyme inactivation. The inhibitor dissociation constant (Ki) and the first order rate
[formula] constant of enzyme inactivation at infinite inhibitor concentration (kinact) were then obtained by fitting the kobs vs. [I] curves to equation (3).

Regarding `Cc1nccnc1NC(=O)N1CCC(=Cc2cccc(Oc3ccc(C(F)(F)F)cn3)c2)CC1` [Example 24, N-(3-methylpyrazin-2-yl)-4-(3-{[5-(trifluoromethyl)pyridin-2-yl]oxy}benzylidene)piperidine-1-carboxamide], the kinact/KI came out at 2410 M⁻¹ s⁻¹.

Turning to `O=C(Nc1ccnnc1)N1CCC(=Cc2cccc(Oc3ccc(C(F)(F)F)cn3)c2)CC1` [Example 25, N-(pyridazin-4-yl)-4-(3-{[5-(trifluoromethyl)pyridin-2-yl]oxy}benzylidene)piperidine-1-carboxamide], the kinact/KI was found to be 12100 M⁻¹ s⁻¹.

Turning to `COc1ccc(NC(=O)N2CCC(=Cc3cccc(Oc4ccc(C(F)(F)F)cn4)c3)CC2)nn1` [Example 26, N-(6-methoxypyridazin-3-yl)-4-(3-{[5-(trifluoromethyl)pyridin-2-yl]oxy}benzylidene)piperidine-1-carboxamide], the kinact/KI was determined as 11000 M⁻¹ s⁻¹.

Regarding `O=C(Nc1cncc(Cl)n1)N1CCC(=Cc2cccc(Oc3ccc(C(F)(F)F)cn3)c2)CC1` [Example 27, N-(6-chloropyrazin-2-yl)-4-(3-{[5-(trifluoromethyl)pyridin-2-yl]oxy}benzylidene)piperidine-1-carboxamide], the kinact/KI amounted to 3900 M⁻¹ s⁻¹.

In the case of `O=C(Nc1ccc(Br)nc1)N1CCC(=Cc2cccc(Oc3ccc(C(F)(F)F)cn3)c2)CC1` [Example 28, 4-(3-(5-(trifluoromethyl)pyridin-2-yloxy)benzylidene)-N-(6-bromopyridin-3-yl)piperidine-1-carboxamide], the kinact/KI stood at 6190 M⁻¹ s⁻¹.

With `O=C(Nc1ccccc1F)N1CCC(=Cc2cccc(Oc3ccc(C(F)(F)F)cn3)c2)CC1` [Example 29, 4-(3-(5-(trifluoromethyl)pyridin-2-yloxy)benzylidene)-N-(2-fluorophenyl)piperidine-1-carboxamide], the kinact/KI is 3370 M⁻¹ s⁻¹.

With `N#Cc1ccc(Oc2cccc(C=C3CCN(C(=O)Nc4cccnc4)CC3)c2)nc1` [Example 30, 4-(3-(5-cyanopyridin-2-yloxy)benzylidene)-N-(pyridin-3-yl)piperidine-1-carboxamide], the kinact/KI amounted to 3540 M⁻¹ s⁻¹.

Turning to `O=C(Nc1cccnc1)N1CCC(=Cc2cccc(Oc3ccc(Br)cn3)c2)CC1` [Example 33, 4-{3-[(5-bromopyridin-2-yl)oxy]benzylidene}-N-pyridin-3-ylpiperidine-1-carboxamide], the kinact/KI is 26300 M⁻¹ s⁻¹.

Regarding `O=C(Nc1cccnn1)N1CCC(=Cc2cccc(Oc3ccc(Br)cn3)c2)CC1` [Example 34, 4-(3-(5-bromopyridin-2-yloxy)benzylidene)-N-(pyridazin-3-yl)piperidine-1-carboxamide], the kinact/KI was found to be 50900 M⁻¹ s⁻¹.

Regarding `Cc1noc(NC(=O)N2CCC(=Cc3cccc(Oc4ccc(Br)cn4)c3)CC2)c1C` [Example 35, 4-(3-(5-bromopyridin-2-yloxy)benzylidene)-N-(3,4-dimethylisoxazol-5-yl)piperidine-1-carboxamide], the kinact/KI was determined as 3670 M⁻¹ s⁻¹.

Turning to `O=C(Nc1cccnc1)N1CCC(=Cc2cccc(Oc3ncc(Br)cn3)c2)CC1` [Example 36, 4-(3-(5-bromopyrimidin-2-yloxy)benzylidene)-N-(pyridin-3-yl)piperidine-1-carboxamide], the kinact/KI was determined as 5070 M⁻¹ s⁻¹.

As to `O=C(Nc1cccnn1)N1CCC(=Cc2cccc(Oc3ncc(Br)cn3)c2)CC1` [Example 37, 4-(3-(5-bromopyrimidin-2-yloxy)benzylidene)-N-(pyridazin-3-yl)piperidine-1-carboxamide], the kinact/KI stood at 15100 M⁻¹ s⁻¹.

For the molecule `O=C(Nc1cccnc1)N1CCC(=Cc2cccc(Oc3ccc(C4CC4)cn3)c2)CC1` [Example 38, 4-(3-(5-cyclopropylpyridin-2-yloxy)benzylidene)-N-(pyridin-3-yl)piperidine-1-carboxamide], the kinact/KI is 9180 M⁻¹ s⁻¹.

As to `O=C(Nc1cccnn1)N1CCC(=Cc2cccc(Oc3ccc(C4CC4)cn3)c2)CC1` [Example 39, 4-(3-(5-cyclopropylpyridin-2-yloxy)benzylidene)-N-(pyridazin-3-yl)piperidine-1-carboxamide], the kinact/KI worked out at 18200 M⁻¹ s⁻¹.

Take `Cc1cccc(Oc2cccc(C=C3CCN(C(=O)Nc4cccnc4)CC3)c2)n1` [Example 40, 4-(3-(6-methylpyridin-2-yloxy)benzylidene)-N-(pyridin-3-yl)piperidine-1-carboxamide]: the kinact/KI was 554 M⁻¹ s⁻¹.

`Cc1cccc(Oc2cccc(C=C3CCN(C(=O)Nc4cccnn4)CC3)c2)n1` [Example 41, 4-(3-(6-methylpyridin-2-yloxy)benzylidene)-N-(pyridazin-3-yl)piperidine-1-carboxamide]: the kinact/KI is 687 M⁻¹ s⁻¹.

Turning to `Cc1cccnc1Oc1cccc(C=C2CCN(C(=O)Nc3cccnc3)CC2)c1` [Example 42, 4-(3-(3-methylpyridin-2-yloxy)benzylidene)-N-(pyridin-3-yl)piperidine-1-carboxamide], the kinact/KI is 834 M⁻¹ s⁻¹.

Turning to `Cc1cccnc1Oc1cccc(C=C2CCN(C(=O)Nc3cccnn3)CC2)c1` [Example 43, 4-(3-(3-methylpyridin-2-yloxy)benzylidene)-N-(pyridazin-3-yl)piperidine-1-carboxamide], the kinact/KI was 1410 M⁻¹ s⁻¹.

As for `Cc1ccc(Oc2cccc(C=C3CCN(C(=O)Nc4cccnn4)CC3)c2)nc1` [Example 45, 4-(3-(5-methylpyridin-2-yloxy)benzylidene)-N-(pyridazin-3-yl)piperidine-1-carboxamide], the kinact/KI came to 12800 M⁻¹ s⁻¹.

As for `Cc1ccc(Oc2cccc(C=C3CCN(C(=O)Nc4onc(C)c4C)CC3)c2)nc1` [Example 46, 4-(3-(5-methylpyridin-2-yloxy)benzylidene)-N-(3,4-dimethylisoxazol-5-yl)piperidine-1-carboxamide], the kinact/KI was 3700 M⁻¹ s⁻¹.

For the molecule `CCOc1ccc(Oc2cccc(C=C3CCN(C(=O)Nc4cccnc4)CC3)c2)nc1` [Example 47, 4-(3-(5-ethoxypyridin-2-yloxy)benzylidene)-N-(pyridin-3-yl)piperidine-1-carboxamide], the kinact/KI worked out at 4490 M⁻¹ s⁻¹.

With `CCOc1ccc(Oc2cccc(C=C3CCN(C(=O)Nc4cccnn4)CC3)c2)nc1` [Example 48, 4-(3-(5-ethoxypyridin-2-yloxy)benzylidene)-N-(pyridazin-3-yl)piperidine-1-carboxamide], the kinact/KI was found to be 5830 M⁻¹ s⁻¹.

As to `O=C(Nc1cccnc1)N1CCC(=Cc2cccc(Oc3ccc(OCC(F)(F)F)cn3)c2)CC1` [Example 49, 4-(3-(5-(2,2,2-trifluoroethoxy)pyridin-2-yloxy)benzylidene)-N-(pyridin-3-yl)piperidine-1-carboxamide], the kinact/KI was determined as 6560 M⁻¹ s⁻¹.

Consider `O=C(Nc1cccnn1)N1CCC(=Cc2cccc(Oc3ccc(OCC(F)(F)F)cn3)c2)CC1` [Example 50, 4-(3-(5-(2,2,2-trifluoroethoxy)pyridin-2-yloxy)benzylidene)-N-(pyridazin-3-yl)piperidine-1-carboxamide], for which the kinact/KI is 5670 M⁻¹ s⁻¹.

As to `CC(C)Oc1ccc(Oc2cccc(C=C3CCN(C(=O)Nc4cccnc4)CC3)c2)nc1` [Example 51, 4-(3-(5-isopropoxypyridin-2-yloxy)benzylidene)-N-(pyridin-3-yl)piperidine-1-carboxamide], the kinact/KI came to 4330 M⁻¹ s⁻¹.

For `CC(C)Oc1ccc(Oc2cccc(C=C3CCN(C(=O)Nc4cccnn4)CC3)c2)nc1` [Example 52, 4-(3-(5-isopropoxypyridin-2-yloxy)benzylidene)-N-(pyridazin-3-yl)piperidine-1-carboxamide], the kinact/KI stood at 4090 M⁻¹ s⁻¹.

Regarding `O=C(Nc1cccnc1)N1CCC(=Cc2cccc(Oc3ccc(C(F)(F)F)cc3)c2)CC1` [Example 53], the “hFAAH kinact/Ki” value amounted to 4520 M⁻¹ s⁻¹.

`O=C(Nc1cccnn1)N1CCC(=Cc2cccc(Oc3ccc(C(F)(F)F)cc3)c2)CC1` [Example 54, 4-(3-(4-(trifluoromethyl)phenoxy)benzylidene)-N-(pyridazin-3-yl)piperidine-1-carboxamide]: the kinact/KI came out at 12000 M⁻¹ s⁻¹.

Take `Cc1noc(NC(=O)N2CCC(=Cc3cccc(Oc4ccc(C(F)(F)F)cc4)c3)CC2)c1C` [Example 55, 4-(3-(4-(trifluoromethyl)phenoxy)benzylidene)-N-(3,4-dimethylisoxazol-5-yl)piperidine-1-carboxamide]: the kinact/KI was 1610 M⁻¹ s⁻¹.

`Cc1ccc(NC(=O)N2CCC(=Cc3cccc(Oc4ccc(C(F)(F)F)cc4)c3)CC2)cn1` [Example 56, 4-(3-(4-(trifluoromethyl)phenoxy)benzylidene)-N-(6-methylpyridin-3-yl)piperidine-1-carboxamide]: the kinact/KI turned out to be 3580 M⁻¹ s⁻¹.
